ChEMBL document CHEMBL1201862, “PubChem BioAssay data set” (2004)
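These data come from cells grown in 96-well plates and exposed to compound for 48 hours at five concentrations. GI50 is the concentration that inhibits growth by half.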 Calls of active or inactive are those of the source. Rule as the data show it: active = GI50 up to about 1.1 µM and inactive = higher.

Tests used:
Assay in all cases: growth of human tumour cells (NCI), 48 h
[1] = test system: U-251
[2] = test system: UO-31
[3] = test system: CCRF-CEM
[4] = test system: SK-MEL-5
[5] = test system: A498
[6] = test system: MOLT-4
[7] = test system: NCI/ADR-RES
[8] = test system: UACC-257
[9] = test system: T47D
[10] = test system: SF-295
[11] = test system: RPMI-8226
[12] = test system: K562
[13] = test system: HOP-92
[14] = test system: M14
[15] = test system: HCC 2998
[16] = test system: Hs-578T
[17] = test system: SF-268
[18] = test system: SN12C
[19] = test system: LOX IMVI
[20] = test system: NCI-H522

Compound	GI50 [1]	GI50 [2]	GI50 [3]	GI50 [4]	GI50 [5]	GI50 [6]	GI50 [7]	GI50 [8]	GI50 [9]	GI50 [10]	GI50 [11]	GI50 [12]	GI50 [13]	GI50 [14]	GI50 [15]	GI50 [16]	GI50 [17]	GI50 [18]	GI50 [19]	GI50 [20]
CCC(=O)C1(c2ccccc2)CCN(C)CC1	> 100 µM (inactive)	> 100 µM (inactive)	> 100 µM (inactive)	> 100 µM (inactive)	> 100 µM (inactive)	> 100 µM (inactive)	> 100 µM (inactive)	> 100 µM (inactive)	> 100 µM (inactive)	> 100 µM (inactive)	> 100 µM (inactive)	> 100 µM (inactive)	> 100 µM (inactive)	> 100 µM (inactive)	> 100 µM (inactive)	> 100 µM (inactive)	> 100 µM (inactive)	–	–	–
Cc1c(C(=O)OCc2ccccc2)[n+]([O-])c2ccccc2[n+]1[O-]	40.8 µM (inactive)	27.8 µM (inactive)	< 0.01 µM (active)	22 µM (inactive)	36.1 µM (inactive)	5.4 µM (inactive)	26.2 µM (inactive)	17.8 µM (inactive)	13.4 µM (inactive)	32.7 µM (inactive)	11.6 µM (inactive)	37.6 µM (inactive)	0.22 µM (active)	32.1 µM (inactive)	30.8 µM (inactive)	30.1 µM (inactive)	34.7 µM (inactive)	31.3 µM (inactive)	20 µM (inactive)	–
COc1ccc(NC(=O)CSC(=O)c2ccccc2)c(SCCSSCCSc2cc(OC)ccc2NC(=O)CSC(=O)c2ccccc2)c1	> 100 µM (inactive)	73.6 µM (inactive)	79.6 µM (inactive)	> 100 µM (inactive)	> 100 µM (inactive)	3.5 µM (inactive)	> 100 µM (inactive)	> 100 µM (inactive)	28.7 µM (inactive)	> 100 µM (inactive)	> 100 µM (inactive)	–	84.9 µM (inactive)	15.7 µM (inactive)	–	> 100 µM (inactive)	67.5 µM (inactive)	> 100 µM (inactive)	20.7 µM (inactive)	> 100 µM (inactive)
O=c1ss/c(=N\c2ccccc2)n1-c1ccccc1	23.2 µM (inactive)	17.5 µM (inactive)	4.14 µM (inactive)	32.4 µM (inactive)	> 100 µM (inactive)	28.7 µM (inactive)	28.3 µM (inactive)	20.4 µM (inactive)	16.3 µM (inactive)	> 100 µM (inactive)	21.4 µM (inactive)	21.8 µM (inactive)	21.6 µM (inactive)	19 µM (inactive)	36.8 µM (inactive)	32.4 µM (inactive)	18.5 µM (inactive)	20.4 µM (inactive)	19.3 µM (inactive)	–
C[N+](C)(N)Cc1nc(-c2ccc(Cl)cc2)no1	> 100 µM (inactive)	–	94.8 µM (inactive)	75.3 µM (inactive)	70 µM (inactive)	20.8 µM (inactive)	> 100 µM (inactive)	> 100 µM (inactive)	22.9 µM (inactive)	> 100 µM (inactive)	52.8 µM (inactive)	44.2 µM (inactive)	> 100 µM (inactive)	> 100 µM (inactive)	–	> 100 µM (inactive)	–	> 100 µM (inactive)	> 100 µM (inactive)	> 100 µM (inactive)
Cc1noc(-c2ccc(C(=O)O)[nH]2)c1Br	34.8 µM (inactive)	71.6 µM (inactive)	> 100 µM (inactive)	> 100 µM (inactive)	> 100 µM (inactive)	> 100 µM (inactive)	50.5 µM (inactive)	> 100 µM (inactive)	17.3 µM (inactive)	28.1 µM (inactive)	> 100 µM (inactive)	> 100 µM (inactive)	12.2 µM (inactive)	> 100 µM (inactive)	65 µM (inactive)	42.3 µM (inactive)	46.1 µM (inactive)	–	–	39.7 µM (inactive)
CC1CCC(=O)C(C(=O)CC2CC(=O)NC(=O)C2)C1 (stereo unspecified)	> 100 µM (inactive)	> 100 µM (inactive)	> 100 µM (inactive)	> 100 µM (inactive)	> 100 µM (inactive)	> 100 µM (inactive)	> 100 µM (inactive)	> 100 µM (inactive)	> 100 µM (inactive)	> 100 µM (inactive)	> 100 µM (inactive)	> 100 µM (inactive)	> 100 µM (inactive)	> 100 µM (inactive)	> 100 µM (inactive)	> 100 µM (inactive)	> 100 µM (inactive)	> 100 µM (inactive)	> 100 µM (inactive)	–
COc1ccc(C(=C(Cl)c2ccccc2)c2ccc(OC)cc2)cc1	> 100 µM (inactive)	> 100 µM (inactive)	> 100 µM (inactive)	79.3 µM (inactive)	> 100 µM (inactive)	> 100 µM (inactive)	> 100 µM (inactive)	86.5 µM (inactive)	16.1 µM (inactive)	> 100 µM (inactive)	35.1 µM (inactive)	> 100 µM (inactive)	> 100 µM (inactive)	> 100 µM (inactive)	–	> 100 µM (inactive)	> 100 µM (inactive)	> 100 µM (inactive)	> 100 µM (inactive)	84.3 µM (inactive)
SC1=NNC2(C(S)=N1)c1ccccc1-c1ccccc12	> 10 µM (inactive)	4.51 µM (inactive)	> 10 µM (inactive)	> 10 µM (inactive)	0.697 µM (active)	> 10 µM (inactive)	> 10 µM (inactive)	> 10 µM (inactive)	4.83 µM (inactive)	–	> 10 µM (inactive)	> 10 µM (inactive)	> 10 µM (inactive)	> 10 µM (inactive)	> 10 µM (inactive)	0.394 µM (active)	> 10 µM (inactive)	> 10 µM (inactive)	> 10 µM (inactive)	–
COC(=O)[C@]1(Cc2ccc3ccccc3c2)CCCCCCN1C(=O)c1ccccc1	> 26.7 µM (inactive)	> 21 µM (inactive)	> 23.9 µM (inactive)	> 100 µM (inactive)	> 36.1 µM (inactive)	> 21.3 µM (inactive)	> 34 µM (inactive)	12.5 µM (inactive)	> 30.3 µM (inactive)	> 23.4 µM (inactive)	4.15 µM (inactive)	> 22 µM (inactive)	> 38.5 µM (inactive)	> 36.1 µM (inactive)	> 34 µM (inactive)	18.7 µM (inactive)	> 33.8 µM (inactive)	> 37 µM (inactive)	16.7 µM (inactive)	–
CC(CC(N)C(=O)O)C(=O)O (stereo unspecified)	> 100 µM (inactive)	> 100 µM (inactive)	> 100 µM (inactive)	> 100 µM (inactive)	> 100 µM (inactive)	> 100 µM (inactive)	> 100 µM (inactive)	> 100 µM (inactive)	> 100 µM (inactive)	> 100 µM (inactive)	–	> 100 µM (inactive)	> 100 µM (inactive)	> 100 µM (inactive)	–	> 100 µM (inactive)	> 100 µM (inactive)	> 100 µM (inactive)	> 100 µM (inactive)	> 100 µM (inactive)
